Experimental findings from patent US8420145B2, “Isosorbide derivatives and their use as flavor modifiers, tastants, and taste enhancers” (Senomyx, Inc., priority 2008, dated 2013) are described below.

Values joined by “and” are separate entries in the source; they are usually repeats but may differ in a detail not shown here. Equal entries are not always repeated.

In general, melting point refers to the temperature, or range, at which the solid turns liquid.

Data set [1] is described as follows: Time-intensity testing: panelists rate umami intensity over 70 seconds. Particulars: for Average Intensity-at-Max (umami intensity): scale 0 to 100. The class given is in vivo, human. The method, then: Overview: Panelists Evaluate Various Solutions for Umami Intensity Over Time.
General procedure: Samples presented to panelists include various concentrations of MSG and compounds of interest. Samples may contain 0.1% ethanol to assist in dissolving compounds into solution. Samples are three-digit blind coded and served in 20 ml volumes. Samples are presented to panelists in randomized, counterbalanced order. All data is collected using the Compusense five software program. Umami intensity is rated on a scale from 0 to 100 (0=no umami intensity; 100=strong umami intensity). Panelists sip a sample and begin rating umami intensity. Panelists move the mouse on the horizontal scale to correspond to the umami intensity they perceive. Panelists continue rating the intensity for 70 seconds, and then expectorate the sample. The software program records an intensity score for each panelist for each 1 second period during the sample evaluation.
After tasting each sample, panelists sip and swish water in the mouth for a few seconds and expectorate. They may repeat this several times. Panelists wait 30 minutes before tasting the next sample.
Data analysis: Time-intensity curves are created for each of the samples and various parameters of the test are compared statistically.
To create the graphical representation of the sample: For each of the 70 seconds of the evaluation, panelists individual scores are averaged and presented graphically. For example, each panelist's intensity score at time=0 seconds is averaged and plotted. The same calculation is made for each of the 70 seconds to create the time-intensity curve.
To evaluate the Time to Maximum Intensity parameter: A time-intensity curve is created for each panelist. […] The specific time scores for each panelist are averaged. Next, the average scores for the various samples are compared using ANOVA, and multiple comparisons are performed using Tukey's Honestly Significant Difference test at alpha=0.05.

Data set [2] deals with un-induced I-17 cells. In words: FLIPR assay on un-induced I-17 cells (no mifepristone, receptor not expressed). The class given is cell-based. On the procedure: In order to determine the dependency of hT1R1/hT1R3 for the cell response to different stimuli, selected compounds were subjected to a similar analysis on I-17 cells that had not been induced for receptor expression with mifepristone (designated as un-induced I-17 cells). […] Compounds were presented to un-induced umami cells at 10 μM-or three times the maximum stimulation used in the dose-response analysis.

[3] abbreviates: 15 ppm (41.62 uM) in Low Sodium Buffer pH 7.1, n = 33.
Setting [4] is: 2.5 ppm (6.86 uM) in Low Sodium Buffer pH 7.1, n = 36.
[5] abbreviates: 12 mM in Low Sodium Buffer pH 7.1, n = 33.
The mark [6] stands for this setting: 12 mM in Low Sodium Buffer pH 7.1, n = 36.
[7] abbreviates: 16 mM in Low Sodium Buffer pH 7.1, n = 36.

For `O=C(N[C@H]1CO[C@H]2[C@@H]1OC[C@@H]2n1cc(CC2CCCCC2)nn1)C1CC1` [Example 1, N-((3S,3αR,6S,6αR)-6-(4(cyclohexylmethyl)-1H-1,2,3-triazol-1-yl)-hexahydrofuro[13,2-b]furan-3-yl)cyclopropanecarboxamide], in data set [1] (setting [3]), the “Average Time-to-Max (time to maximum umami intensity)” value (“Average Time-to-Max” below) is 14.9 s and the “Average Intensity-at-Max (umami intensity)” value (shortened to “Average Intensity-at-Max”) is given as 57. Further, the “average intensity at maximum compared with Sample 1 (12 mM MSG), Tukey's HSD test” value in data set [1] (15 ppm (41.62 uM), p<0.05) was “significantly more savory”. In data set [1] (15 ppm (41.62 uM), p>0.1), the “average intensity at maximum compared with Sample 2 (16 mM MSG), Tukey's HSD test” value is recorded as “not significantly different” and the “average time to maximum intensity compared with Sample 2 (16 mM MSG), Tukey's HSD test” value is listed as “not significantly different”.
`O=C(CCCC1CCCCC1)N[C@H]1CO[C@H]2[C@@H]1OC[C@@H]2NC(=O)C1CC1` [Example 29, N-((3S,3αR,6S,6αR)-6-(4cyclohexylbutanamido)hexahydrofuro-[3,2-b]furan-3-yl)cyclopropanecarboxamide] gave a melting point of 181.5 to 182.5 °C. Also, in data set [1] (2.5 ppm (6.86 uM)), the “average time to maximum intensity compared with Sample 4 (12 mM MSG) and Sample 5 (16 mM MSG), Tukey's HSD test” value is “not significantly different”. For the same compound, in data set [1] (setting [4]), the “Average Time-to-Max” value was 18.3 s and the “Average Intensity-at-Max” value worked out at 57.9. Further, in data set [1] (2.5 ppm (6.86 uM), p>0.1), the “average intensity at max compared with Sample 4 (12 mM MSG) or Sample 5 (16 mM MSG), Tukey's HSD test” value is “not significantly different”.
In the case of `N[C@@H](CCC(=O)O)C(=O)[O-].[Na+]` [monosodium glutamate, Monosodium Glutamate], in data set [2], the “functional response in the FLIPR assay” value was “do not show any functional response”. In addition, the “Average Time-to-Max” value is 15.9 s in data set [1] (setting [5]); 18.8 s in data set [1] (setting [6]); 17 s and 17.7 s in data set [1] (16 mM in Low Sodium Buffer pH 7.1, n = 33, listed as Sample 2); 16.3 s in data set [1] (setting [7]). The “Average Intensity-at-Max” value in data set [1] (setting [5]) is 45.3; in data set [1] (setting [6]), 49.8; in data set [1] (16 mM in Low Sodium Buffer pH 7.1, n = 33), 53.8; in data set [1] (setting [7]), 62.9.
